Measured values: patent US10076508B2, “Pharmaceutical compositions for inhibiting antibiotic-resistant microorganisms and uses thereof” (Peptide Cham Biotech Co., Ltd., priority 2015, dated 2018)

Tests used:
[1] = system: Staphylococcus aureus; assay: Antibiotics activity test (bacteria concentration OD630 over time); type: cell-based; conditions: 1 μg/ml Fmoc-Ala-OPfp in culture medium, 8 hours after bacterial inoculation, 37° C.; compared with ampicillin and vancomycin
Description: The bacteria were cultured for antibiotics activity test. (FIG. 3) The cultured cells were added with specific concentration of Fmoc-Ala-OPfp, Ampicillin and Vancomycin as experimental group, and the cultured cells were not added with any drugs as control group, and the same amount of Staphylococcus aureus colonies were added then cultured in an incubator under 37° C. The different time of bacteria concentrations (OD630) were tested to investigate the antibiotic inhibitory effect of Fmoc-Ala-OPfp, Ampicillin and Vancomycin.
Only a small amount (1 μg/ml) of Fmoc-Ala-OPfp was added in the culture medium.

[2] = system: human red blood cells; assay: Hemolytic test; type: cell-based; conditions: at 100 μg/ml; human red blood cells 2% (V/V), 37° C., 1 hour, O.D. 490 nm
Description: Fresh human red blood cells were washed by 0.9% physiological saline for three times, then were dissolved into 2% (V/V) physiological saline, and 50 μL red blood cells suspension and 50 μL of the compound (10, 50 and 100 μg/ml of antibiotic Fmoc-Ala-OPfp) and Triton X-100 was added into the 96-well tray, wherein the final concentration of red blood cells was 2% (V/V). The sample was slightly shaking in the incubator under 37° C. for 1 hour and centrifuged with 2000 g for 30 minutes. 50 μL sample suspension was dropped into a new 96-well tray and the O.D. 490 nm absorbance was measured. The physiological saline and Triton X-100 was negative control group and positive control group, respectively.

[3] = system: Mammalian cell line L292 and MEF cell lines; assay: MTT assay cytotoxicity (survival analysis); type: cell-based, human; conditions: 100 μg/mL, 24 hours, 570 nm absorbance
Description: Mammalian cell line L292 and MEF cell lines were cultured in Dulbecco's modified Eagle culture medium, wherein the culture medium was added with 100 μg/mL streptomycin, 100 U/mL penicillin and 10% (v/v) fetal bovine serum, and then the cell lines were cultured the in 5% CO2 containing humidified incubator under 37° C.
MTT assay was used for investigating the cytotoxicity of compound on mammalian cells. The cells were cultured at 96-well tray with 100 μL culture medium for 24 hours after sterilization, then the cells were cultured in the diluted culture medium for 24 hours. 3-(4,5-dimethylthiazol-2yl)-2,5-diphenyltetrazolium bromide (MTT) was added into each well of 96-well tray and incubated for 4 hours. The cell suspension was removed and 100 μL dimethyl sulfoxide was added for dissolving all the precipitate. Enzyme immunoassay instrument was used for measure the 570 nm absorbance.

`C[C@H](NC(=O)OCC1c2ccccc2-c2ccccc21)C(=O)Oc1c(F)c(F)c(F)c(F)c1F` [Fmoc-Ala-OPfp, N-(9-fluorenylmethoxycarbonyl)-L-alanine pentafluorophenyl] was tested, and the “antibiotic effect (inhibition of bacteria growth, OD630)” value [1] was “equivalent to 5.3 μg/ml of ampicillin and 5.3 μg/ml vancomycin”, the hemolytic activity [2] was “low hemolytic activity” and the “cell toxicity on MTT assay” value [3] was 10-20%.
